The record followed here is article PMC6685951, “Migration of Bacteriocins Across Gastrointestinal Epithelial and Vascular Endothelial Cells, as Determined Using In Vitro Simulations” (Scientific Reports, 2019).

Where a SMILES comes first, the peptide text is derived from it. Bridges are numbered along the chain shown (N, C = ends).

In series [1] the test system is L. monocytogenes EGDe. The series can be described thus: Antimicrobial activity of NHS-fluorescein labelled versus unlabelled peptides (zone sizes). In kind it is cell-based, Listeria monocytogenes. The settings on record: 50 µM, 20 µL spotted on LEB agar seeded with L. monocytogenes EGDe, overnight 37 °C. How it is done:
HPLC purified stock solutions of nisin A, plantaricin 423 and bacST4SA were prepared by dissolving the peptides in sterile ultrapure water. Immediately before conjugating NHS-fluorescein to the peptides, a stock solution of NHS-fluorescein was prepared by dissolving 1 mg of reagent in 100 µL DMF. The amount of NHS-fluorescein to be added to each peptide was calculated using the Eqs (2) and (3):2 mLpeptide×mgpeptide/mLpeptide×mmolpeptide/mgpeptide×15mmolNHS/mmolpeptide=mmolNHS 3 mmolNHS×473.4(MWofNHS)/mmolNHS×100µLDMF/1mg=µLNHS
The calculated concentration of NHS-fluorescein was added to the peptides and incubated on ice for 2 h. Non-reacted NHS-fluorescein was removed by Sep-Pak C18 column chromatography. Plantaricin 423 and bacST4SA were eluted with 60% acetonitrile containing 0.1% TFA and nisin A with 40% acetonitrile containing 0.1% TFA. Peptides were freeze dried and resuspended in sterile ultrapure water. Concentrations of the labelled peptides were determined with the BCA assay and diluted to 50 µM. Labelled peptides were filtered through a 0.45 µm HVLP membrane and spotted (20 µL) onto LEB agar seeded with 1% L. monocytogenes EGDe (OD600 0.1). Plates were incubated overnight at 37 °C and the fluorescent peptides visualised under a UVP 3UV Ultraviolet Lamp. Inhibition zones were measured using ImageJ software and compared to those of non-labelled peptides.

Series [2] deals with Caco-2 cells. Kind of series: XTT viability assay, Caco-2. The settings on record: 24 h, 37 °C. In kind it is cell-based, human. The method, then: (§1) For viability and cytotoxicity studies, cells were seeded in 96-well flat-bottom culture plates (1 × 10^4 cells/well). To determine migration of nisin A, plantaricin 423 and bacST4SA across the gastrointestinal epithelial and vascular endothelial barriers, HUVEC and Caco-2 cells were grown on an 8 µm pore size tissue culture insert, as shown in Fig. 1. All cell culture experiments were done in triplicate and have been repeated more than three times.
Cells were grown in 100 µL of culture medium for 24 h at 37 °C. The bacteriocins were separately added to the cells at concentrations of 25 µM, 50 µM and 100 µM. Sterile ultrapure water was used as control. After 24 h of incubation at 37 °C, the reaction mixture containing PMS (N-methyl-dibenzopyrazine-methylsulfate/phenazine methosulphate) and XTT solution, was added to each well and incubated for 4 h at 37 °C. Absorbance readings were recorded at 450 nm, using a microtiter plate reader. The percentage viability was calculated as AT/AC × 100; where AT is the absorbance of peptide-treated cells and AC is the absorbance of control (untreated cells).

For series [3], the system named is HUVEC. Kind of series: LDH release assay, HUVEC. In kind it is cell-based, human. The settings on record: 24 h. How it is done:
as §1
(§2) HUVEC and Caco-2 cells were exposed to three different concentrations (25 µM, 50 µM and 100 µM) nisin A, plantaricin 423 and bacST4SA and the presence of extracellular LDH determined using the LDH release assay kit. Sterile ultrapure water was used as negative control (referred to as spontaneous LDH activity) and lysis buffer (10X) was used as positive control (referred to as maximum LDH activity). After incubating the cultures in the presence of the peptides for 24 h at 37 °C, culture supernatants were pipetted into a 96-well plate. Reaction mixture was added to the supernatants and plates were incubated at 25 °C for 30 min. Absorbance was measured at 490 nm and 680 nm, respectively. The percentage cytotoxicity was calculated as follows (1):1 %Cytotoxicity=(Compound−treatedLDHactivity)−(SpontaneousLDHactivity)/MaximumLDHactivity−SpontaneousLDHactivity×100

Series [4] concerns Caco-2 cells. Kind of series: LDH release assay, Caco-2. The settings on record: 24 h. In kind it is cell-based, human. The method, then:
as §1, §2

A short description of series [5]: Plasma stability assay (loss of antimicrobial activity). In kind it is in vitro ADME, human. The settings on record: 37 °C, 3 days, agar well diffusion vs L. monocytogenes EGDe, zone diameter (ImageJ). The method, then:
Human blood was collected in tubes with potassium and EDTA as anticoagulant, centrifuged at 500 × g (10 min, 25 °C) and the plasma collected. Different plasma concentrations (0%, 40% and 80%, v/v) were prepared by diluting with sterile ultrapure water. Nisin A, plantaricin 423 and bacST4SA, each suspended in sterile ultrapure water, were added to the plasma to final concentrations of 25 µM, 50 µM and 100 µM, sterile ultrapure water was used as control. Incubation was at 37 °C for 3 days and bacteriocin activity was tested using the agar well diffusion assay. Listeria monocytogenes EGDe was used as target organism. Digital images of the plates were taken after incubation and activity quantified by measuring the diameter of the zones using ImageJ software (version 1.5; https://imagej.nih.gov/ij/).

Take `CC(C)C[C@@H]1NC(=O)[C@H](Cc2c[nH]cn2)NC(=O)[C@H](CO)NC(=O)[C@H](C(C)C)NC(=O)[C@H](CO)NC(=O)[C@@H](NC(=O)[C@H](CO)NC(=O)[C@H](Cc2ccccc2)NC(=O)[C@H](C)NC(=O)[C@H](CCC(N)=O)NC(=O)CNC(=O)[C@H](Cc2c[nH]c3ccccc23)NC(=O)[C@H](CC(N)=O)NC(=O)[C@@H](NC(=O)[C@H](CO)NC(=O)[C@@H]2CSSC[C@H](NC(=O)[C@@H](NC(=O)[C@@H](NC(=O)CNC(=O)[C@H](CC(N)=O)NC(=O)CNC(=O)[C@H](Cc3ccc(O)cc3)NC(=O)[C@H](Cc3ccc(O)cc3)NC(=O)[C@@H](N)CCCCN)C(C)C)[C@@H](C)O)C(=O)NCC(=O)N[C@@H](CCCCN)C(=O)N[C@@H](Cc3c[nH]cn3)C(=O)N[C@@H](CO)C(=O)N2)C(C)C)CSSC[C@@H](C(=O)O)NC(=O)[C@H](CCCCN)NC(=O)CNC(=O)[C@H](Cc2c[nH]cn2)NC(=O)CNC(=O)[C@H](Cc2ccccc2)NC(=O)[C@H](CC(N)=O)NC(=O)[C@H](C)NC1=O` [plantaricin 423] (H-KYYGNGVTCGKHSCSVNWGQAFSCSVSHLANFGHGKC-OH; disulfide 9-14, 24-37; N-terminus and C-terminus assumed): in series [1], the “decrease in activity of labelled versus unlabelled peptide (antimicrobial zone sizes)” value is reported as 24%. Further, the “cell viability (XTT)” value in series [2] (Caco-2, 25 µM and 50 µM (up to 50 µM), absorbance 450 nm) was “did not cause significant decreases”; in series [2] (Caco-2, 100 µM), “slight reduction”. Moreover, the “cytotoxicity level (LDH release)” value is listed as 21% in series [3] (100 µM, 37 °C, percentage of maximum LDH release (lysis buffer = 100%)) and 17% in series [4] (Caco-2, 100 µM, 37 °C, percentage of maximum LDH release (lysis buffer = 100%)). The “toxicity (LDH release)” value in series [3] (concentrations up to 100 µM) is “minimal toxicity”; in series [4] (Caco-2, concentrations up to 100 µM) it was “minimal toxicity”. In addition, the “decrease in antimicrobial activity” value in series [5] (40% (v/v) human EDTA plasma in ultrapure water, 25 µM peptide) is on record as 40%; in series [5] (40% (v/v) human EDTA plasma in ultrapure water, 50 µM peptide) it was 30%; in series [5] (40% (v/v) human EDTA plasma in ultrapure water, 100 µM peptide) it was 17%; in series [5] (80% (v/v) human EDTA plasma in ultrapure water, 25 µM peptide) it was 60%; in series [5] (80% (v/v) human EDTA plasma in ultrapure water, 50 µM peptide), 39%; in series [5] (80% (v/v) human EDTA plasma in ultrapure water, 100 µM peptide), 29%.
